From patent US5272151A, “Aminoacyl and oligopeptidyl derivatives of allopurinol exhibiting immunostimulatory activity, and pharmaceutical formulations containing these substances” (Sigma-Tau Industrie Farmaceutiche Riunite S.p.A., priority 1991, dated 1993)
Where two headings read alike, the source gives them in different places.

Legend:
[1] = tested on: plaque-forming cells (PFC) in the spleen of mice immunised with sheep red blood cells (SRBC); test: Production of primary antibodies (Jerne test) in the spleen of mice immunised with SRBC; type: in vivo; details: for PFC/10^6 cells (x ± S.E.) / PFC/spleen (x ± S.E.): 25 mg/kg/d i.p. from day -3 through day 3, SRBC immunisation day 0, B6D2F1 mice
Protocol: The effects of ST 689 and ST 789 on the production of primary antibodies (Jerne test) in the spleen of mice immunised with sheep red blood cells (SRBC).
Male hybrid B6 D2 F1 mice (Charles River, Italy), 7-8 weeks old, were used in experimental groups of 6 animals each. In this test, each animal was examined individually.
The compounds were administered intraperitoneally at a daily dose of 25 mg/kg from day -3 to day +3, where day 0 was the day of immunisation. The experimental procedure employed is described in Jerne, N. K. et al., Transpl. Rev., 18:30 (1974). Animals were immunised by i.p. administration of a suspension of SRBC (1×10^8 cells/mouse in 0.2 mL of PBS buffer). Five days following this treatment, the animals were killed and their spleens sterilely removed. The splenocytes were suspended at a concentration of 1×10^7 cells/ml, and 0.1 mL of this splenocyte suspension was mixed with 2 mL of warm Hank's agar medium +0.2 mL of 10% SRBC in PBS buffer and incubated in a Petri dish for 60 min at 37° C. (the samples were tested in triplicate). Complement (2 mL of guinea pig serum diluted 1:10 with Tris buffer) was added, and the Petri dishes incubated for 30 min at 37° C. In the presence of complement the cells secreted anti-SRBC antibodies, which evoked a haemolytic reaction. Such a reaction is indicative of lytic plaques in the samples contained in the Petri dishes.
The results are expressed as: […]
a) number of plaque-forming cells (PFC) in a population of 1×10^6cells;
b) number of PFC in intact spleens.
The values obtained were analysed using Dunnett's test (Biostatistics in Pharmacology, vol. 2, Pergamon Press) to ascertain the statistical significance of differences between the treated and control animal groups.

E. coli = test: Protective effect in experimentally-infected immunosuppressed mice (E. coli); type: in vivo; details: cyclophosphamide-immunodepressed CD1 mice; 25 mg/kg/d i.p. day -5 through day -1; challenge day 0
Excerpt: (§1) Evaluation of the protective effects of ST 689 and ST 789 in experimentally-infected immunosuppressed mice.
(§2) Male CDl mice (Charles River, Italy), 6-10 weeks old, were used in experimental groups of 9-20 animals. Systemic infection in the mice was achieved by intrapcritoncal inoculation of a pathogenic species of Klebsiclla (K. oxytoca), Proteus (P. mirabilis), Serratia (S. marcescens),and Hscherichia (E. coli). Eighteen-hour broth cultures were used to prepare infectious inocula that were either sublethal (Proteus) or which corresponded to an LD30 (Serratia) and an LD10 (Escherichia, Klebsiella). The bacterial challenge, inoculated i.p. in 0.5 mL of 5% gastric mucin, was designed to cause the death of animals immunodepressed with cyclophosphamide (administered i.p. in 0.2 mL of sterile physiological solution at a dosage of 100 mg/kg) 5 days prior to infection. The compounds were administered i.p. at daily doses of 25 mg/kg from day -5 to day -1 with respect to the day of bacterial inoculation (day 0). The results are expressed as % mortality and were statistically analysed using Fisher's test (Biostatistics in Pharmacology, vol. 2, Pergamon Press).

K. oxytoca = test: Protective effect in experimentally-infected immunosuppressed mice (K. oxytoca); type: in vivo; details: for % Mortality, K. oxytoca: cyclophosphamide-immunodepressed CD1 mice, 25 mg/kg/d i.p. day -5 through day -1, challenge day 0
Excerpt: as §1, §2

S. marcescens = test: Protective effect in experimentally-infected immunosuppressed mice (S. marcescens); type: in vivo; details: for % Mortality, S. marcescens: cyclophosphamide-immunodepressed CD1 mice, 25 mg/kg/d i.p. day -5 through day -1, challenge day 0
Excerpt: as §1, §2

P. mirabilis = test: Protective effect in experimentally-infected immunosuppressed mice (P. mirabilis); type: in vivo; details: for % Mortality, P. mirabilis: cyclophosphamide-immunodepressed CD1 mice, 25 mg/kg/d i.p. day -5 through day -1, challenge day 0
Excerpt: as §1, §2

[2] = Weight survey of rats in the IL-2 test (Test 5); type: in vivo, rat; details: Fisher rats; 25 mg/kg daily i.p. day -5 through day -1
Protocol: Male Fisher rats (Charles River, Italy), 3 months old, in experimental groups of 5 animals, were treated with the substances at daily dosages of 25 mg/kg from day -5 through day -1 relative to the day the spleens were sampled (day 0). The experimental procedure employed was that reported in [1]. To suspensions of splenocytes, prepared in RPMI 1640 with 10% FCS+1×10^-5 M β-mercaptoethanol and standardised to a concentration of 1×10^7 cells/mL, were added equal volumes of ConA at a concentration of 18 μg/mL/well. After incubating for 48 h at 37° C. in the presence of 5% CO2 the samples were centrifuged and the supernates collected. Serial dilutions of the supernates were added to CTLL-2 cells (a line of T-cells requiring IL-2 for growth) standardised at 5×10^4 cells/mL. Following an overnight incubation, the samples were labelled with ^3 H--TdR (0.5 μCi/well)for 6 h, then the cells were collected on filters using a cell harvester, and counted (cpm) using a β-counter. The results are expressed in units of IL-2, comparing the counts in the samples to a standard curve prepared with purified IL-2 . . . ls1.

[3] = tested on: CEM-CM3 human leukaemic lymphoblasts; test: In vitro-ex vivo cytostatic activity of mouse peritoneal macrophages towards tumour targets; details: for inhibition at 25 mg/kg: Mus musculus, Peritoneal macrophage
Protocol: In vitro-ex vivo effects of substances ST 689 and ST 789 on the cytostatic activity of mouse peritoneal macrophages (MO) towards tumour targets.
Male B6 D2 F1 mice (Charles River, Italy), 7 weeks old, 5 animals per experimental group, were treated with the above substances i.p. at daily dosages of 25 mg/kg from day -5 through day -1 relative to the day of macrophage sampling (day 0). The tumour target, CEM--CM3 human leukaemic lymphoblasts, was admixed with adherent Mo so as to have two different precisely-measured effector:target ratios, viz. 10:1 and 20:1. Each sample, prepared in triplicate in flat-bottom microliter wells, was labelled with ^3 H--TdR (0.05 μCi) by incubation for 18 h at 37° C. The tumour cells from each well were collected on filters, counted in a β-counter, and the % inhibition of tumour target growth determined using the formula. [formula]

[4] = immunodepressed mice, 25 mg/kg/d i.p.

N=C(N)NCCC[C@H](NC(=O)OCCCCCn1cnc2c(=O)[nH]cnc21)C(=O)O [ST 789, N-alfa-5-(hypoxanthin-9-yl)-pentyloxycarbonylarginine, reference compound]
PFC/10^6 cells (x ± S.E.) [1]: 220 ± 30 PFC/10^6 cells
PFC/spleen (x ± S.E.) [1]: 35011 ± 4761 PFC/spleen
% Mortality, E. coli (E. coli): 20%
% Mortality, K. oxytoca (K. oxytoca): 10%
% Mortality, S. marcescens (S. marcescens): 50%
% Mortality, P. mirabilis (P. mirabilis): 11,1%
Body weight [2]: 275.0 ± 3.76 g
Spleen weight [2]: 539.2 ± 12.11 mg
Growth inhibition of the CEM-CM3 cell line, in words ([3]; 25 mg/kg daily i.p.): definite increase in growth inhibition
% Growth Inhibition 10:1 ([3]; effector:target ratio 10:1, 25 mg/kg daily day -5 through day -1): 15.85 ± 3.33%
% Growth Inhibition 20:1 ([3]; effector:target ratio 20:1, 25 mg/kg daily day -5 through day -1): 30.31 ± 5.19%

O=c1[nH]cnc2c1cnn2CCCCCO [ST 689, 1,5-dihydro-1-(5-hydroxypentyl)-4H-pyrazolo-[3,4-d]-pyrimidin-4-one]
PFC/10^6 cells (x ± S.E.) [1]: 303 ± 47 PFC/10^6 cells
PFC/spleen (x ± S.E.) [1]: 64839 ± 15985 PFC/spleen
Activity in terms of the number of PFC per spleen, in words ([1]; 25 mg/kg/d i.p., increase not statistically significant with respect to the control): more active than ST 789
% Mortality, E. coli (E. coli): 40%
% Mortality, K. oxytoca (K. oxytoca): 10%
Protective activity in Klebsiella infection, in words (K. oxytoca; [4]): equal to that of ST 789
% Mortality, S. marcescens (S. marcescens): 20%
Protective activity in Serratia infection, in words (S. marcescens; [4]): better than ST 789
% Mortality, P. mirabilis (P. mirabilis): 10%
Protective activity in Proteus infection, in words (P. mirabilis; [4]): equal to that of ST 789
Body weight [2]: 271.6 ± 4.76 g
Spleen weight [2]: 511.0 ± 22.35 mg
inhibition at 25 mg/kg ([3]; effector:target ratio 10:1, 25 mg/kg daily day -5 through day -1, read-out: % Growth Inhibition 10:1): 32.8 ± 1.84%
inhibition at 25 mg/kg ([3]; effector:target ratio 20:1, 25 mg/kg daily day -5 through day -1, read-out: % Growth Inhibition 20:1): 48 ± 5.46%
